Test results published in publication PMC3702004, “Comparison of Intake and Systemic Relative Effect Potencies of Dioxin-like Compounds in Female Mice after a Single Oral Dose” (Environmental Health Perspectives, 2013).

Legend:
Cyp1a1 mRNA in liver = assay: Cyp1a1 gene expression in liver (real-time PCR); assay type: in vivo, female C57BL/6 mice; settings: for BMR20TCDD Liver Cyp1a1 mRNA: 3 days after single oral dose; for REP Liver Cyp1a1 mRNA: relative to TCDD
Method: (§1) Animals. Eight-week-old female C57BL/6 mice (Harlan laboratories, Venray, the Netherlands) were randomly assigned to treatment groups (six animals per group) and allowed to acclimate for 1.5 weeks. The animals were housed in groups in standard cages and conditions (23 ± 2°C, 50–60% relative humidity, 12-hr dark/light cycle) with free access to food and water. Mice received a single dose of test compound by oral gavage at a dosing volume of 10 mL/kg body weight (BW). Mice treated with corn oil vehicle (10 mL/kg BW) served as controls. For each congener, five different doses were administered, ranging from 0.5–100 μg/kg BW (TCDD) to 5,000–500,000 µg/kg BW (PCB-153). Detailed information on doses is provided in Supplemental Material, Table S1 (http://dx.doi.org/10.1289/ehp.1206336). On day 3 after dosing, animals were euthanized by CO2/O2 asphyxiation, and blood was immediately collected from the abdominal aorta. The liver, thymus, spleen, and adipose tissue were removed, weighed (liver, thymus, and spleen), snap frozen, and stored at –80°C. All animal treatments were performed with permission of the Animal Ethical Committee (DEC Utrecht) and performed according to the [Law on Animal Experiments (1977)]. Animals were treated humanely and with regard for alleviation of suffering.
(§2) RNA isolation and quantitative real-time polymerase chain reaction (PCR). Total RNA was isolated from liver and PBLs using a QIAGEN RNeasy kit (QIAGEN). Purity and concentration of the isolated RNA was determined by measuring the absorbance ratio at 260/280 nm and 230/260 nm with a Nanodrop 2000 spectrophotometer (Thermo Scientific, Asheville, NC, USA). RNA was reverse transcribed to complementary DNA (cDNA) using the iScript cDNA synthesis Kit (Bio-Rad, Veenendaal, the Netherlands). Quantitative real-time PCR analyses were performed using the iQ Real-Time PCR Detection System with SYBR green (Bio-Rad). Amplification reactions were set up with […] containing 12.5 μL iQ SYBR Green Supermix (Bio-rad), 0.5 μL distilled H2O, 1 μL (10 μM) forward primer, 1 μL (10 μM) reverse primer, and 10 μL first strand cDNA (10X diluted). Primer sequences were as follows: Cyp1a1: forward-5´-GGTTAACCATGACCGGGAACT-3´ and reverse-5´-TGCCCAAACCAAAGAGAGTGA-3´ ([Schulz et al. 2012]); Cyp1a2: forward-5´-ACATTCCCAAGGAGCGCTGTATCT-3´ and reverse-5´-GTCGATGGCCGAGTTGTTATTGGT-3´ ([Flaveny et al. 2010]); Cyp1b1: forward-5´-GTGGCTGCTCATCCTCTTTACC-3´ and reverse-5´-CCCACAACCTGGTCCAACTC-3´ ([Berge et al. 2004]); β-actin: forward-5´-ATGCTCCCCGGGCTGTAT-3´ and reverse-5´-CATAGGAGTCCTTCTGACCCATTC-3´ ([Schulz et al. 2012]). All primers were run through the National Center for Biotechnology Information Primer-BLAST database (http://www.ncbi.nlm.nih.gov/tools/primer-blast/) to confirm specificity and validate for optimal annealing temperature (60°C for all primers) and efficiency. […] The following program was used for denaturation and amplification of cDNA: 3 min at 95°C, followed by 40 cycles of 15 sec at 95°C and 45 sec at 60°C. Gene expression for each sample was expressed as threshold cycle (Ct), normalized to the reference gene β-actin (ΔCt). We calculated fold induction relative to the control group.
(§3) Data analysis. We obtained concentration–response curves using a sigmoidal dose–response nonlinear regression curve fit with variable slope (GraphPad Prism 6.01; GraphPad Software Inc., San Diego, CA, USA):
(§4) In this Hill equation, y is the dependent variable (EROD activity or fold induction of mRNA levels), x the independent variable (administered or systemic dose), E0 is the estimated background response level, Emax is the maximum response, b is the estimated median effective concentration (EC50), and n is the shaping parameter of the Hill curve.
(§5) Using the congener-specific BMR20TCDD concentration, REPs were calculated relatively to TCDD: […]

[1] = tested on: hepatic CYP1A1 activity (ethoxyresorufin-O-deethylase, EROD); assay: Hepatic EROD activity in hepatic microsomal fractions after single oral dose; assay type: in vivo, female C57BL/6 mice; settings: for BMR20TCDD Liver EROD activity: 3 days after single oral dose; for REP Liver EROD activity: relative to TCDD
Method: as §1
EROD activity. We determined hepatic CYP1A1 activity using ethoxyresorufin-O-deethylase (EROD) activity in hepatic microsomal fractions as described by [Schulz et al. (2012)].
as §3, §4, §5

Cyp1a1 mRNA in PBLs = assay: Cyp1a1 gene expression in peripheral blood lymphocytes; assay type: in vivo, female C57BL/6 mice; settings: for BMR20TCDD PBLs Cyp1a1 mRNA: 3 days after single oral dose; for REP PBLs Cyp1a1 mRNA: relative to TCDD
Method: as §1
Plasma and PBL isolation. Blood from two mice was pooled (total volume of approximately 1.4 mL); plasma and PBLs were then isolated using Ficoll Paque gradient (GE Healthcare Europe, Diegem, Belgium). Plasma samples were stored at –80°C until compound analysis. Isolated lymphocytes were lysed with RLT buffer (QIAGEN, Venlo, the Netherlands) as described in the QIAGEN RNAeasy kit protocol and stored at –80°C until use.
as §2
Data analysis. We obtained concentration–response curves using a sigmoidal dose–response nonlinear regression curve fit with variable slope (GraphPad Prism 6.01; GraphPad Software Inc., San Diego, CA, USA): […]

[2] = CYP1A2 knockout mice; ref Diliberto et al. 1997; cited from earlier work
[3] = dose metric Adm dose (µg/kg BW)
[4] = dose metric Syst liver (ng/g lipid)
[5] = dose metric Syst liver (ng/g liver)
[6] = dose metric Syst plasma (ng/g lipid)
[7] = dose metric Syst adipose (ng/g lipid)

Row | SMILES | BMR20TCDD Liver Cyp1a1 mRNA (Cyp1a1 mRNA in liver; dose metric Adm dose) | BMR20TCDD Liver Cyp1a1 mRNA (Cyp1a1 mRNA in liver; dose metric Syst plasma) | REP Liver Cyp1a1 mRNA (Cyp1a1 mRNA in liver; [3]) | REP Liver Cyp1a1 mRNA (Cyp1a1 mRNA in liver; [4]) | REP Liver Cyp1a1 mRNA (Cyp1a1 mRNA in liver; [5]) | REP Liver Cyp1a1 mRNA (Cyp1a1 mRNA in liver; [6]) | BMR20TCDD Liver EROD activity ([1]; dose metric Adm dose) | BMR20TCDD Liver EROD activity ([1]; dose metric Syst adipose) | BMR20TCDD Liver EROD activity ([1]; dose metric Syst plasma) | REP Liver EROD activity [1, 3] | REP Liver EROD activity [1, 7] | REP Liver EROD activity [1, 4] | REP Liver EROD activity [1, 5] | REP Liver EROD activity [1, 6] | BMR20TCDD PBLs Cyp1a1 mRNA (Cyp1a1 mRNA in PBLs; dose metric Adm dose) | BMR20TCDD PBLs Cyp1a1 mRNA (Cyp1a1 mRNA in PBLs; dose metric Syst plasma) | REP PBLs Cyp1a1 mRNA (Cyp1a1 mRNA in PBLs; [3]) | REP PBLs Cyp1a1 mRNA (Cyp1a1 mRNA in PBLs; [6]) | BMR20TCDD Liver Cyp1a1 mRNA (Cyp1a1 mRNA in liver; dose metric Syst adipose) | REP Liver Cyp1a1 mRNA (Cyp1a1 mRNA in liver; [7]) | other results
1 | Clc1ccc(-c2cc(Cl)c(Cl)cc2Cl)cc1Cl [PCB-118, 2,3´,4,4´,5-pentachlorobiphenyl] | 139,631 µg/kg BW | 803,766 ng/g lipid | 0.000005 | 0.00005 | 0.00007 | 0.000003 | 55,259 µg/kg BW | 359,114 ng/g lipid | 311,118 ng/g lipid | 0.000005 | 0.000003 | 0.00006 | 0.00006 | 0.000004 | – | – | – | – | – | – | –
2 | Clc1ccc(-c2cc(Cl)c(Cl)c(Cl)c2)cc1Cl [PCB-126, 3,3´,4,4´,5-pentachlorobiphenyl] | 558 µg/kg BW | – | 0.001 | 0.001 | 0.001 | 0.008 | 29.3 µg/kg BW | 72.7 ng/g lipid | 72.3 ng/g lipid | 0.01 | 0.02 | 0.003 | 0.004 | 0.02 | 603 µg/kg BW | 847 ng/g lipid | 0.04 | 0.06 | 315 ng/g lipid | 0.008 | –
3 | Clc1ccc(-c2cc(Cl)c(Cl)c(Cl)c2Cl)cc1Cl [PCB-156, 2,3,3´,4,4´,5-hexachlorobiphenyl] | 44,305 µg/kg BW | 303,586 ng/g lipid | 0.00001 | 0.0001 | 0.0001 | 0.000009 | 15,664 µg/kg BW | 82,483 ng/g lipid | 98,188 ng/g lipid | 0.00002 | 0.00001 | 0.0002 | 0.0002 | 0.00001 | 747,734 µg/kg BW | 2,359,081 ng/g lipid | 0.00003 | 0.00002 | 180,515 ng/g lipid | 0.00001 | –
4 | Clc1cc2c(cc1Cl)Oc1c(cc(Cl)c(Cl)c1Cl)O2 [PeCDD, 1,2,3,7,8-pentachlorodibenzodioxin] | 1.25 µg/kg BW | 3.94 ng/g lipid | 0.5 | 0.4 | 0.4 | 0.7 | 0.54 µg/kg BW | 1.25 ng/g lipid | 2.31 ng/g lipid | 0.5 | 1 | 0.3 | 0.3 | 0.6 | 33.7 µg/kg BW | 34.0 ng/g lipid | 0.7 | 1.5 | 2.36 ng/g lipid | 1 | –
5 | Clc1cc2c(cc1Cl)Oc1cc(Cl)c(Cl)cc1O2 [TCDD, 2,3,7,8-tetrachlorodibenzodioxin, reference compound] | 0.64 µg/kg BW | 2.66 ng/g lipid | 1 | 1 | 1 | 1 | 0.29 µg/kg BW | 1.23 ng/g lipid | 1.38 ng/g lipid | 1 | 1 | 1 | 1 | 1 | 22.4 µg/kg BW | 50.6 ng/g lipid | 1 | 1 | 2.50 ng/g lipid | 1 | Liver:adipose ratio [2]: < 0.3
